Measurements as given in article PMC11371747, “The role of l-leucovorin uptake and metabolism in the modulation of 5-fluorouracil efficacy and antifolate toxicity” (Frontiers in Pharmacology, 2024).

What was measured:
[1] = biological target: T1, folate receptor α (FRα) (Homo sapiens, UniProt P15328); assay: Intact cell competitive binding assay, displacement of [3H]-folic acid from FRα in KB cells
T1 construct: endogenous in cells; host or cells: KB cells (FRα++)
Method: (§1) In order to determine whether the LV isomers were substrates for either folate receptor α (FRα), RFC and/or PCFT, we used model systems with established overexpression of these receptors or transporters ([Westerhof et al., 1995a]; [Westerhof et al., 1995b]; [Lasry et al., 2008]; [Van der Heijden et al., 2009]).
For FRα we used KB cells ([Westerhof et al., 1995b]). An intact cell binding assay for competitive binding was performed as described previously ([Westerhof et al., 1995a]). Briefly, cells were washed with Hanks balanced salt solution and 6 mM glucose (HBSS, pH 7.4), suspended in 1 mL of this solution (1*10^6 for KB cells) and incubated at 4°C for 15 min with 100 pmol [^3H]-folic acid [(^3H)-FA], in the presence and absence of unlabelled folic acid or LV stereoisomers. Cells were collected by centrifugation and analysed for radioactivity. Relative affinities for FRα were defined as the inverse ratio of compound to displace 50% of radioactive folic acid from FRα. The relative affinity of folic acid was set at 1.

[2] = biological target: T2, reduced folate carrier (RFC/SLC19A1) (Homo sapiens, UniProt P41440); assay: Inhibition of RFC-mediated [3H]-l-LV influx in CEM-7A cells; format: cell-based; conditions: 5 µM [3H]-l-LV, 2 min, 37°C, read-out: Concentration for 50% inhibition of [3H]-l-LV influx (RFC)
T2 construct: CEM-7A cells, which display 30-fold RFC overexpression relative to wild-type CCRF-CEM cells; endogenous in cells; host or cells: CEM-7A (CCRF-CEM variant, RFC+++ 30-fold)
T2 sequence (P41440 1-591): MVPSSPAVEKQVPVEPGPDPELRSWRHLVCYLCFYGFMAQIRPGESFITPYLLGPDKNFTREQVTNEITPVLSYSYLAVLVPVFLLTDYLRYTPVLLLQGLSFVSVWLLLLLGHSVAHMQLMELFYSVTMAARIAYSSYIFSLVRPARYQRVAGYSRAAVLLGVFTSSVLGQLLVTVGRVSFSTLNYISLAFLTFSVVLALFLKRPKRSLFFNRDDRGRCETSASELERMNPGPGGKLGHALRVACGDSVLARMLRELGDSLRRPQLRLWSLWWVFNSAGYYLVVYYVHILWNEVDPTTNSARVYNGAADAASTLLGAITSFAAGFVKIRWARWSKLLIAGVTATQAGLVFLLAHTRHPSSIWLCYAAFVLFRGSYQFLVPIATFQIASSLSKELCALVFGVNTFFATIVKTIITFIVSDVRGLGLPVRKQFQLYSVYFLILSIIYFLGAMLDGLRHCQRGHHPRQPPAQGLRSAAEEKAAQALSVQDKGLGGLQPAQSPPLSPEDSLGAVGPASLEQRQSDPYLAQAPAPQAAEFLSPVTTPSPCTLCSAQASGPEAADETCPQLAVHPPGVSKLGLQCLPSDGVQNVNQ
Method: as §1
CEM-7A cells (2 × 10^6) were suspended in 1 mL HBSS and the assay was initiated by addition of 25 μL 200 μM [^3H]-l-LV; 5,000 pmol (i.e., 5 μM final concentration). Incubations proceeded for 2 min at 37°C in the absence and presence of increasing amounts of unlabelled LV/antifolate drug. Blanks consisted of a separate incubation at 4°C or incubation with 100-fold molar excess of unlabelled l-LV. [^3H]-l-LV influx was terminated by adding 9 mL ice-cold HBSS, centrifugation and an additional wash of the cells with 10 mL ice-cold buffer. Cell pellets were then assessed for radioactivity. Relative affinities for RFC are expressed as the concentration of unlabelled drug necessary to inhibit [^3H]-l-LV uptake by 50%.

[3] = biological target: T3, human PCFT (Homo sapiens, UniProt Q96NT5); assay: Inhibition of PCFT-mediated [3H]-l-LV influx in CHO/C5-PCFT cells; format: cell-based, Chinese hamster (CHO cells); conditions: CHO/C5/PCFT cells, 2.5 µM [3H]-l-LV, pH 5.5, 3 min; read-out: Concentration for 50% inhibition of PCFT-mediated [3H]-l-LV influx
T3 construct: expressed in transfected cells; host or cells: CHO/C5 (RFC-deficient Chinese hamster ovary cells, no PCFT)
T3 sequence (Q96NT5 1-459): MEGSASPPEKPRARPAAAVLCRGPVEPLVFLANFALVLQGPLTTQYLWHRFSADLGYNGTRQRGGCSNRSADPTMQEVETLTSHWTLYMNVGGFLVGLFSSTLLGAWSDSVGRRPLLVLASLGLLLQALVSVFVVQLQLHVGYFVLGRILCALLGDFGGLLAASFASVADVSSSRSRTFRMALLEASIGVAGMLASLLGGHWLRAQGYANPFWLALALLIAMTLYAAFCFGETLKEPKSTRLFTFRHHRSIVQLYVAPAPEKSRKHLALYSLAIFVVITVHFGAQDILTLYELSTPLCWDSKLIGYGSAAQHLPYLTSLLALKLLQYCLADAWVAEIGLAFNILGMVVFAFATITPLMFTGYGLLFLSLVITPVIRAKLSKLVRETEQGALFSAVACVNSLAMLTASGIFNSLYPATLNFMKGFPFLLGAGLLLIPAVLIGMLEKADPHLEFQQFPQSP
Method: as §1
The competitive inhibition by 2.5 μM [^3H]-l-LV influx of PCFT was measured essentially as described for the RFC assay, except that the incubation time was 3 min, at pH 5.5 (the optimal pH for PCFT) and pH 7.4 with increasing amounts of unlabelled LV stereoisomers/antifolate drug. For PCFT too, relative affinities were expressed as the concentration of unlabelled drug necessary to inhibit 50% of [^3H]-l-LV influx.

[4] = system: unselected cell lines with a different pathology; parameters: method as in Van der Wilt and Peters, 1994; conditions: large panel of unselected cell lines with a different pathology; ref Van der Wilt and Peters, 1994; cited from earlier work

T1 sequence (P15328 25-257): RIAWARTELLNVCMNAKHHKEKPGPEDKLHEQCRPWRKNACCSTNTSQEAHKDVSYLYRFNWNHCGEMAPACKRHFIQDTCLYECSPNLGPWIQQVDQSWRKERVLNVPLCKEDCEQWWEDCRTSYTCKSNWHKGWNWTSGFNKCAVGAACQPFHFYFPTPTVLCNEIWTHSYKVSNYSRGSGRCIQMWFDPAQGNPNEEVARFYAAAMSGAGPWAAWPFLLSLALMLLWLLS

## Nc1nc2c(c(=O)[nH]1)N(C=O)C(CNc1ccc(C(=O)N[C@@H](CCC(=O)O)C(=O)O)cc1)CN2 (mixture of isomers) [dl-LV]
[1]
  50% [3H]-FA displacement, fold lower concentration than l-LV: 2 fold
[1]; 100 pmol [3H]-FA, inverse ratio of amount of drug displacing 50% of [3H]-FA, FA set to 1
  Relative affinity for FRα: 0.041
[2]
  IC50: 7.3 µM
[3]
  IC50: 4.5 µM
[4]
  Enhancement of the effect of 5FU by dl-LV: about 2 fold
